From US5663154A, “2',3'-dideoxy-3'-fluoro-purine ribonucleosides” (Glaxo Wellcome Inc., priority 1992, dated 1997)
Where “and” joins values, the source holds several entries; their conditions need not be identical. Equal values may be shown once.

Legend:
[1] = test system: HIV; test: Antiviral activity against HIV: reversal of cytopathic effect in MT4 cells, propidium iodide dye uptake; format: cell-based; details: Human immunodeficiency virus 1, 120 h, HIV-1 (strain 3B) or HIV-2 (Zagury strain), not stated which, 5 days
Procedure: Anti-HIV activity of compounds of formula (I) was determined using the method of Averett D. R., 1989, J. Virol. Methods, 23, pp263-276, by measuring the ability of the compound to reverse the cytopathic effect of HIV infection. This was determined by a quantitative assessment of cell growth monitored at the fifth day post infection by a propidium iodide dye uptake test. MT4 cells were incubated with 100XTCID50 of HIV-1 (strain 3B) or HIV-2 (Zagury strain) for one hour prior to addition of the compound in six different concentrations varying from 2 to 200 μM. The cells were allowed to incubate for five days at 37° C. On day 5, NP-40, a detergent, was added to a final concentration of 0.5% immediately prior to analysis. Cell number was determined using a method which measures the fluorescence of a dye (propidium iodide) which binds to DNA. Since the amount of DNA is directly proportional to cell number, this fluorescence assay is an indication of cell growth. While uninfected cells double in cell number several times during the five days duration of the assay, HIV-infected cells grow very little, if at all. A compound which reverses the cytopathic effect of HIV would allow for rapid cell growth, approaching that of the mock-infected cells. […]

[2] = test system: Hepatitis B Virus (HBV); test: Antiviral activity against HBV: extracellular HBV DNA from HepG2 2.2.15 cells; format: cell-based, human HBV; details: culture medium, treated at 25 μm (so in the source)
Procedure: Anti-HBV activity of compounds of formula (I) was determined using a method described by Korba B. E. and Milman G., Antiviral Research, 1991, Vol.15, pp217-228.
The assay utilises the human HBV producer cell line of HepG2, 2.2.15, described and characterized by Sells et al., PNAS 84, 1005 (1987) and J. Virol. […] This cell line was utilized in vitro to identify compounds with anti-HBV activity.
Supernatant media containing extracellular virion DNA (Dane particles) were harvested on days 0, 4 and 9, treated with proteinase K (1 mg/mL) and sodium dodecyl sulfate (1%), and incubated at 50° C. for one hour. DNA was extracted with equal volumes of phenol followed by chloroform and then precipitated using ammonium acetate and propanol. […] After precipitation by ammonium acetate and propanol, the intracellular DNA precipitate was dissolved, cut by restriction endonuclease, Hind III, applied co agarose gel and then treated as described by Southern to determine the quantity of replicative intermediate forms. The antiviral effect of the drug was determined by measuring at least a 100-fold reduction in the amount of Dane particles extruded into the culture medium and a similar decrease in the intracellular replicative intermediates.

CN(C)c1nc(N)nc2c1ncn2[C@H]1C[C@H](F)[C@@H](CO)O1 [Example 13, 2-Amino-9-(2,3-dideoxy-3-fluoro-β-D-erythro-pentofuranosyl)-6-(dimethylamino)-9H-purine]
IC50 [1]: 8 µM
Extracellular HBV DNA, Day 0 ([2]; Day 0): 60 pg/mL and 99 pg/mL and 77 pg/mL and 67 pg/mL
Extracellular HBV DNA, Day 4 ([2]; Day 4): 57 pg/mL and 33 pg/mL and 53 pg/mL and 51 pg/mL
